Measured values: ChEMBL document CHEMBL1201862, “PubChem BioAssay data set” (2004)
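Results reflect a 48-hour exposure of cells in 96-well plates to compound at five concentrations. GI50 marks 50% less growth.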 The source made the active and inactive calls. No stated cut-off is given here; in the data, active = GI50 up to about 1.1 µM and inactive = higher.

Assays:
Experiment in all cases: NCI tumour cell line growth inhibition, 48 h
[1] = system: ACHN
[2] = system: BT-549
[3] = system: HOP-62
[4] = system: Hs-578T
[5] = system: KM12
[6] = system: M14
[7] = system: MDA-MB-435
[8] = system: MDA-N
[9] = system: NCI-H23
[10] = system: NCI-H522
[11] = system: NCI/ADR-RES
[12] = system: OVCAR-3
[13] = system: SF-268
[14] = system: SK-MEL-28
[15] = system: SNB-75
[16] = system: SR
[17] = system: U-251
[18] = system: CAKI-1
[19] = system: MDA-MB-231

Structure (SMILES)	GI50 [1]	GI50 [2]	GI50 [3]	GI50 [4]	GI50 [5]	GI50 [6]	GI50 [7]	GI50 [8]	GI50 [9]	GI50 [10]	GI50 [11]	GI50 [12]	GI50 [13]	GI50 [14]	GI50 [15]	GI50 [16]	GI50 [17]	GI50 [18]	GI50 [19]
CCC(C)c1c(Cl)nc(Cl)nc1Cl (configuration not stated)	3.37 µM (inactive)	1.75 µM (inactive)	4.72 µM (inactive)	21.6 µM (inactive)	1.78 µM (inactive)	1.44 µM (inactive)	2.77 µM (inactive)	6.44 µM (inactive)	2.64 µM (inactive)	0.582 µM (active)	24.2 µM (inactive)	4.57 µM (inactive)	8.04 µM (inactive)	7.18 µM (inactive)	13.8 µM (inactive)	1.25 µM (inactive)	4.16 µM (inactive)	–	–
CC(CO)CCC(O)C(C)(O)C1CCC2(O)C3=CC(=O)C4CC(O)C(O)CC4(C)C3CCC12C (configuration not stated)	> 100 µM (inactive)	> 100 µM (inactive)	> 100 µM (inactive)	–	> 100 µM (inactive)	> 100 µM (inactive)	> 100 µM (inactive)	> 100 µM (inactive)	> 100 µM (inactive)	> 100 µM (inactive)	> 100 µM (inactive)	> 100 µM (inactive)	–	> 100 µM (inactive)	84.3 µM (inactive)	> 100 µM (inactive)	> 100 µM (inactive)	> 100 µM (inactive)	> 100 µM (inactive)
CC(=O)O[C@H]1C[C@](C)(O)[C@@]23CC([C@@H](OC(=O)C(C)(C)O)[C@@H](OC(C)=O)C2(COC(=O)c2ccccc2)[C@H]1OC(C)=O)C(C)(C)O3 (some centres not stated)	> 100 µM (inactive)	> 100 µM (inactive)	> 100 µM (inactive)	> 100 µM (inactive)	78.5 µM (inactive)	55.5 µM (inactive)	> 100 µM (inactive)	> 100 µM (inactive)	> 100 µM (inactive)	67.1 µM (inactive)	> 100 µM (inactive)	78.9 µM (inactive)	> 100 µM (inactive)	> 100 µM (inactive)	–	–	33.4 µM (inactive)	> 100 µM (inactive)	16.8 µM (inactive)
CN1C(=O)C(O)CC1c1ccccc1C(F)(F)F (configuration not stated)	> 100 µM (inactive)	> 100 µM (inactive)	> 100 µM (inactive)	–	> 100 µM (inactive)	> 100 µM (inactive)	> 100 µM (inactive)	> 100 µM (inactive)	> 100 µM (inactive)	> 100 µM (inactive)	> 100 µM (inactive)	> 100 µM (inactive)	–	> 100 µM (inactive)	> 100 µM (inactive)	> 10 µM (inactive)	> 100 µM (inactive)	> 100 µM (inactive)	> 100 µM (inactive)
Nc1nc(F)nc2c1ncn2C1OC(CO)C(O)C1O (configuration not stated)	34 µM (inactive)	57.5 µM (inactive)	5.12 µM (inactive)	> 100 µM (inactive)	> 100 µM (inactive)	8.53 µM (inactive)	35.7 µM (inactive)	> 58.6 µM (inactive)	13.3 µM (inactive)	32.7 µM (inactive)	3.78 µM (inactive)	> 100 µM (inactive)	> 61.7 µM (inactive)	> 77.3 µM (inactive)	> 100 µM (inactive)	–	> 81.5 µM (inactive)	34.6 µM (inactive)	> 100 µM (inactive)
CC(=O)NC1C(OCc2ccccc2)OC(CO)C(O)C1OC(C)C(=O)NC(C(=O)NC(CCC(=O)NCCCNc1ccc([N+](=O)[O-])c2[nH]c3ccccc3c(=O)c12)C(N)=O)C(C)C (configuration not stated)	> 100 µM (inactive)	> 100 µM (inactive)	> 100 µM (inactive)	> 100 µM (inactive)	> 100 µM (inactive)	51.9 µM (inactive)	> 100 µM (inactive)	> 100 µM (inactive)	> 100 µM (inactive)	91.6 µM (inactive)	> 100 µM (inactive)	> 100 µM (inactive)	> 100 µM (inactive)	> 100 µM (inactive)	> 100 µM (inactive)	–	> 100 µM (inactive)	> 100 µM (inactive)	40.6 µM (inactive)
C[C@]12CC[C@H](O)CC1=CC[C@@H]1[C@@H]2CC[C@]2(C)C(=O)/C(=C/c3ccc([N+](=O)[O-])cc3)C[C@@H]12	13.2 µM (inactive)	23.3 µM (inactive)	5.9 µM (inactive)	7.83 µM (inactive)	33.7 µM (inactive)	26.8 µM (inactive)	52.5 µM (inactive)	51.5 µM (inactive)	18.8 µM (inactive)	12.2 µM (inactive)	16.2 µM (inactive)	15.2 µM (inactive)	6.85 µM (inactive)	22.1 µM (inactive)	3.52 µM (inactive)	93.8 µM (inactive)	–	24.1 µM (inactive)	–
O/N=N/c1ccc(Sc2ccc(/N=N/O)cn2)nc1	> 100 µM (inactive)	> 100 µM (inactive)	> 100 µM (inactive)	> 100 µM (inactive)	> 100 µM (inactive)	> 100 µM (inactive)	–	> 100 µM (inactive)	> 100 µM (inactive)	> 100 µM (inactive)	> 100 µM (inactive)	> 100 µM (inactive)	> 100 µM (inactive)	> 100 µM (inactive)	> 100 µM (inactive)	> 100 µM (inactive)	> 100 µM (inactive)	> 100 µM (inactive)	> 100 µM (inactive)
Cc1cc(S(=O)(=O)Nc2nc(N)nc(N(C)C)n2)c(SC(C(=O)O)c2ccccc2)cc1Cl (configuration not stated)	> 10 µM (inactive)	> 10 µM (inactive)	> 10 µM (inactive)	> 10 µM (inactive)	> 10 µM (inactive)	> 10 µM (inactive)	–	> 10 µM (inactive)	> 10 µM (inactive)	> 10 µM (inactive)	> 10 µM (inactive)	> 10 µM (inactive)	> 10 µM (inactive)	> 10 µM (inactive)	> 10 µM (inactive)	> 10 µM (inactive)	> 10 µM (inactive)	> 10 µM (inactive)	–
COc1cc(C2c3cc4c(c(O)c3C(=O)C3CCC(=O)N32)OCO4)cc(OC)c1OC (configuration not stated)	75 µM (inactive)	32.7 µM (inactive)	82.8 µM (inactive)	37.7 µM (inactive)	51.9 µM (inactive)	42.1 µM (inactive)	18.2 µM (inactive)	30.4 µM (inactive)	> 100 µM (inactive)	16.9 µM (inactive)	89.1 µM (inactive)	68.1 µM (inactive)	57 µM (inactive)	49.5 µM (inactive)	30 µM (inactive)	44.8 µM (inactive)	> 100 µM (inactive)	47.3 µM (inactive)	–
COc1ccc(Nc2nc(N)c(C(=O)c3ccc(Cl)cc3)s2)cc1	< 0.01 µM (active)	< 0.0135 µM (active)	< 0.01 µM (active)	< 0.01 µM (active)	0.0432 µM (active)	< 0.01 µM (active)	< 0.01 µM (active)	< 0.01 µM (active)	< 0.0152 µM (active)	< 0.01 µM (active)	< 0.01 µM (active)	< 0.01 µM (active)	0.297 µM (active)	1.02 µM (active)	< 0.01 µM (active)	–	< 0.01 µM (active)	< 0.01 µM (active)	0.047 µM (active)
